How the values were obtained:
Listeria monocytogenes = assay: Growth kinetics (time-kill curves); format: cell-based; details: 50, 100 and 200 μg/ml, 37° C., 24 hrs
Description: (§1) Also preferred is a growth kinetic assay the effect of the compound of interest is assessed in time on growth of bacterial isolates on blood-agar plates, as known by the person skilled in the art. In brief, liquid cultures are inoculated in Mueller-Hinton Broth and incubated at 37° C. o/n. The o/n cultures were used to prepare a 0.05-0.1 McFarland suspension in Mueller Hinton Broth, which are incubated at 37° C. until 0.5 McFarland ([…]). These suspensions are used to inoculate 5 ml pre-warmed Mueller-Hinton Broth with approximately 1.5×10^5 CFU/ml with the appropriate antibiotic compound of interest. Directly after addition of the bacterial suspension a 0.25 ml sample is taken. Further 0.25 ml samples are taken after 1, 3, 6 and 24 hrs, which are added to 2.25 ml physiological salt solution. This suspension is used to prepare plates for CFU determination. The lower limit of detection is 40 CFU/ml. Bacterial suspension without antibiotics is preferably checked for normal growth after 24 hrs. A compound is understood herein as having antibacterial activity if at least 3 log10 reduction of CFU in the growth kinetics assay as passed after 1, 3, 6 or preferably 24 hours.
(§2) After elucidating the structure, we studied the growth kinetics of several Gram+bacteria in the presence of 50, 100 and 200 μg/ml of the compound of formula (I), in order to determine whether the compound was bacteriostatic or bactericidal. The bacteria were cultured at 37° C. for 24 hrs (with the exception of Streptococcus Pneumoniae which was cultured until 6 hrs) in the presence of the compound and samples were taken for colony counting at 0, 1, 3, 6 and 24 hrs.
(§3) More specifically, bacterial isolates as indicated below were grown on blood-agar plates. Liquid cultures were inoculated in Mueller-Hinton Broth and incubated at 37° C. o/n. The o/n cultures were used to prepare a 0.05-0.1 McFarland suspension in Mueller Hinton Broth, which was incubated at 37° C. until 0.5 McFarland ([…]). These suspensions were used to inoculate 5 ml pre-warmed Mueller-Hinton Broth with approximately 1.5×10^5 CFU/ml with the appropriate antibiotic and antibiotic concentration. Directly after addition of the bacterial suspension a 0.25 ml sample was taken. Further 0.25 ml samples were taken after 1, 3, 6 and 24 hrs. Samples were added to 2.25 ml physiological salt solution. This suspension was used to prepare plates for CFU determination. The lower limit of detection was 40 CFU/ml. Bacterial suspension without antibiotics was checked for normal growth after 24 hrs. Efficient bactericidal activity is defined as at least 3 log10 reduction of CFU.
(§4) The bacteria tested were two strains of Enterococcus faecium (FIGS. 2A and 2B), MRSA USA300 (FIG. 2C), MSSA (FIG. 2D), Staphylococcus epidermidis (FIG. 2E), Listeria monocytogenes (FIG. 2F), Streptococcus group A (FIG. 2G), Streptococcus group B (FIG. 2H) and Streptococcus pneumoniae (FIG. 2I).

Streptococcus Group B = assay: Growth kinetics (time-kill curves); format: cell-based; details: 50, 100 and 200 μg/ml, 37° C., 24 hrs, bactericidal = at least 3 log10 reduction of CFU
Description: as §1, §2, §3, §4

[1] = system: Staphylococcus epidermidis; assay: Growth kinetics (time-kill curves); format: cell-based; details: 50, 100 and 200 μg/ml, 37° C., 24 hrs
Description: as §1, §2, §3, §4

Streptococcus pneumoniae = assay: Growth kinetics (time-kill curves); format: cell-based; details: 50, 100 and 200 μg/ml, 37° C., cultured until 6 hrs
Description: as §1, §2, §3, §4

Streptococcus Group A = assay: Growth kinetics (time-kill curves); format: cell-based; details: 50, 100 and 200 μg/ml, 37° C., 24 hrs
Description: as §1, §2, §3, §4

E. faecium (16D030) = assay: Growth kinetics (time-kill curves); format: cell-based, Enterococcus faecium; details: 50, 100 and 200 μg/ml, 37° C., 24 hrs
Description: as §1, with “hours. […]” for “hours.”

E. faecium (15A623) = assay: Growth kinetics (time-kill curves); format: cell-based, Enterococcus faecium; details: 50, 100 and 200 μg/ml, 37° C., 24 hrs
Description: as §1, with “hours. […]” for “hours.”

MRSA USA300 = assay: Growth kinetics (time-kill curves); format: cell-based, Staphylococcus aureus; details: 50, 100 and 200 μg/ml, 37° C., 24 hrs
Description: as §1, with “hours. […]” for “hours.”

MSSA = assay: Growth kinetics (time-kill curves); format: cell-based, Staphylococcus aureus; details: 50, 100 and 200 μg/ml, 37° C., 24 hrs
Description: as §1, with “hours. […]” for “hours.”

Escherichia coli (JS203) = assay: Antibiotic activity of purified fraction (broth growth inhibition, serial dilution); format: cell-based; details: ESBL CTX-M-1, Gram−, no effect at highest concentration
Description: (§5) Preferably the compound of the invention has antimicrobial or antibiotic activity, more preferably antibacterial activity. Antimicrobial or antibacterial activity can be assessed by a suitable assay known by the person skilled in the art, preferably by a growth inhibition assay as exemplified herein. Preferably growth inhibition is assessed by culturing bacteria are cultured in the presence or absence of the antibacterial compound o/n at 37° C. in Luria Broth (LB). The read-out of the assay is by eye, if the bacteria have visibly grown, the sample is scored as non-inhibitory. If the broth is completely clear, the sample is scored as inhibitory.
(§6) Bacteria are cultured o/n at 37° C. in Luria Broth (LB). This culture is diluted 100× in fresh LB. This fresh culture is then used to test the filtrate and extract. The filtrate was tested in serial dilutions starting at 2× and further diluted with a factor 2 until 256×. The extract was tested starting at 10× dilution and further diluted with a factor 2 until 1280×. The bacteria with filtrate or extract were incubated o/n at 37° C. The read-out of the assay is by eye, if the bacteria have visibly grown, the sample is scored as non-inhibitory. If the broth is completely clear, the sample is scored as inhibitory.
(§7) The 95 fractions collected were pooled per 6 and the pooled fractions were dried in a speed-vac o/n. The fraction residues were dissolved in 1 ml 5% DMSO and tested on E. faecium (15A623) in serial dilutions starting at 2×. […] 1 ml of each fraction was dried in a speed-vac o/n and each fraction residue was dissolved in 1 ml 5% DMSO to be tested on E. faecium. […] The fraction was then tested on 19 additional strains of bacteria (Table 3).

[2] = system: Stenotrophomonas maltophilia (20A226), NCCB 100516; assay: as above; format: cell-based; details: Gram−, no effect at highest concentration
Description: as §5, §6, §7

[3] = system: Pseudomonas aeruginosa (04A191), NCCB 100515; assay: as above; format: cell-based; details: Gram−, no effect at highest concentration
Description: as §5, §6, §7

[4] = system: Staphylococcus epidermidis (08A1071); assay: as above; format: cell-based; details: Gram+
Description: as §5, §6, §7

[5] = system: Streptococcus group A (23M092); assay: as above; format: cell-based; details: Gram+
Description: as §5, §6, §7

[6] = system: Klebsiella pneumonia (JS006); assay: as above; format: cell-based; details: ESBL SHV-18, Gram−, no effect at highest concentration
Description: as §5, §6, §7

[7] = system: Enterococcus faecium(15A623); assay: as above; format: cell-based
Description: as §5, §6, §7

[8] = system: Streptococcus group B (05A396); assay: as above; format: cell-based; details: Gram+
Description: as §5, §6, §7

[9] = system: Methicillin-resistant Staphylococcus aureus (MRSA) ST8: USA300 (S1474) FPR3757, NARSA collection NRS482; assay: as above; format: cell-based; details: Gram+
Description: as §5, §6, §7

[10] = system: Klebsiella pneumonia (CP14); assay: as above; format: cell-based; details: ESBL TEM-18, Gram−, no effect at highest concentration
Description: as §5, §6, §7

Escherichia coli (CP131) = assay: as above; format: cell-based; details: ESBL SHV-3, Gram−, no effect at highest concentration
Description: as §5, §6, §7

[11] = system: Enterococcus faecium(16D030); assay: as above; format: cell-based; details: Gram+
Description: as §5, §6, §7

[12] = system: Listeria monocytogenes (41-4a); assay: as above; format: cell-based; details: Gram+
Description: as §5, §6, §7

[13] = system: Klebsiella pneumonia (JS264); assay: as above; format: cell-based; details: ESBL CTX-M-15, Gram−, no effect at highest concentration
Description: as §5, §6, §7

Escherichia coli (JS004) = assay: as above; format: cell-based; details: ESBL TEM-3, Gram−, no effect at highest concentration
Description: as §5, §6, §7

[14] = system: Klebsiella pneumoniae (MR44); assay: as above; format: cell-based; details: Gram−, no effect at highest concentration
Description: as §5, §6, §7

[15] = system: Methicillin-sensitive Staphylococcus aureus 476 (S0101), ATCC BAA-1721; assay: as above; format: cell-based; details: Gram+
Description: as §5, §6, §7

[16] = system: Streptococcus pneumoniae (14B186); assay: as above; format: cell-based; details: Gram+
Description: as §5, §6, §7

[17] = system: Acinetobacter calcoaceticus (15A600), NCCB 100514; assay: as above; format: cell-based; details: Gram−, no effect at highest concentration
Description: as §5, §6, §7

## CC1CCC(=O)/C=C/C(=O)O1 (stereo not drawn) [compound of formula (I), (E)-8-methyl-7,8-dihydro-2H-oxocine-2,5(6H)-dione]
Listeria monocytogenes
  bacteriostatic or bactericidal (time-kill curves): bactericidal
Streptococcus Group B
  bacteriostatic or bactericidal (time-kill curves): bacteriostatic
[1]
  bacteriostatic or bactericidal (time-kill curves): bactericidal
Streptococcus pneumoniae
  bacteriostatic or bactericidal (time-kill curves): bactericidal
Streptococcus Group A
  bacteriostatic or bactericidal (time-kill curves): bactericidal
E. faecium (16D030)
  bacteriostatic or bactericidal (time-kill curves): bacteriostatic
E. faecium (15A623)
  bacteriostatic or bactericidal (time-kill curves): bacteriostatic
MRSA USA300
  bacteriostatic or bactericidal (time-kill curves): bactericidal
MSSA
  bacteriostatic or bactericidal (time-kill curves): bactericidal
Escherichia coli (JS203)
  Minimal concentration for antibacterial activity: No effect at 1.5 g/l
[2]
  Minimal concentration for antibacterial activity: No effect at 1.5 g/l
[3]
  Minimal concentration for antibacterial activity: No effect at 1.5 g/l
[4]
  Minimal concentration for antibacterial activity: 18.8 mg/L
[5]
  Minimal concentration for antibacterial activity: 75.0 mg/1
[6]
  Minimal concentration for antibacterial activity: No effect at 1.5 g/l
[7]; E. faecium (15A623), residue in 1 ml 5% DMSO, serial dilutions starting at 2×
  inhibition of bacterial growth by HPLC fractions: inhibited bacterial growth
[7]; Enterococcus faecium(15A623), Gram+
  Minimal concentration for antibacterial activity: 37.5 mg/1
[7]; compound of formula (I) and hydrogenated derivative at similar concentrations
  activity against E. faecium (15A623): active
[8]
  Minimal concentration for antibacterial activity: 75.0 mg/1
[9]
  Minimal concentration for antibacterial activity: 18.8 mg/L
[10]
  Minimal concentration for antibacterial activity: No effect at 1.5 g/l
Escherichia coli (CP131)
  Minimal concentration for antibacterial activity: No effect at 1.5 g/l
[11]
  Minimal concentration for antibacterial activity: 75.0 mg/1
[12]
  Minimal concentration for antibacterial activity: 75.0 mg/1
[13]
  Minimal concentration for antibacterial activity: No effect at 1.5 g/l
Escherichia coli (JS004)
  Minimal concentration for antibacterial activity: No effect at 1.5 g/l
[14]
  Minimal concentration for antibacterial activity: No effect at 1.5 g/l
[15]
  Minimal concentration for antibacterial activity: 4.69 mg/L
[16]
  Minimal concentration for antibacterial activity: 75.0 mg/1
[17]
  Minimal concentration for antibacterial activity: No effect at 1.5 g/l

Reference: patent publication US9920025B2, “Antibiotic” (Koninklijke Nederlandse Akademie Van Wetenschappen, priority 2014, dated 2018)
